Laboratory results taken from PubChem BioAssay AID1259408 (Genetic Toxicology Data Bank (GENE-TOX), 2018).
Active and inactive are the calls of the source. No rule for the calls is given here.

System: GENE-TOX genotoxicity assays, various organisms and cells
Test: GENE-TOX mutagenicity studies
Details: for call: Assay Type: In vivo carcinogenicity studies
Text: GENE-TOX provides genetic toxicology (mutagenicity) test data from expert peer review of open scientific literature for more than 3,000 chemicals from the United States Environmental Protection Agency (EPA). GENE-TOX was established to select assay systems for evaluation, review data in the scientific literature, and recommend proper testing protocols and evaluation procedures for these systems.
GENE-TOX covers the years 1991 - 1998. It is no longer updated.
This is an archive assay for GENE-TOX mutagenicity studies.

[1] = Species/Cell Type: Salmonella typhimurium (one or more of the five standard strains: TA98, TA100, TA1535, TA1537, and TA1538), Assay Type: Histidine reverse gene mutation, Ames assay, Assay Code: SAL+*, Activation: With metabolic activation, Evaluation Type: Evaluation A (Pre-1980)
[2] = Species/Cell Type: Bacillus subtilis (H17 vs M45), Assay Type: Rec-assay, spot test, DNA effects (bacterial DNA repair), Assay Code: REWT, Evaluation Type: Evaluation A (Pre-1980)
[3] = Species/Cell Type: Salmonella typhimurium (one or more of the five standard strains: TA98, TA100, TA1535, TA1537, and TA1538), Assay Type: Histidine reverse gene mutation, Ames assay, Assay Code: SALT, Evaluation Type: Evaluation A (Pre-1980)
[4] = Species/Cell Type: Salmonella typhimurium (one or more of the five standard strains: TA98, TA100, TA1535, TA1537, and TA1538), Assay Type: Histidine reverse gene mutation, Ames assay, Assay Code: SAL+, Evaluation Type: Evaluation A (Pre-1980)

In the case of OC1C=Cc2c(cc3ccc4cccc5ccc2c3c45)C1O (stereo not drawn), the mutagenic call (Species/Cell Type: Chinese hamster lung (V79) cells, Assay Type: Forward gene mutation at the HPRT or ouabain locus, Assay Code: V79+, Evaluation Type: Evaluation A (Pre-1980)) is reported as “active; positive”.

With O=P(O)(O)CCCl the mutagenic call (Species/Cell Type: Allium cepa, Assay Type: Chromosome aberrations, Assay Code: ALC+D, Dose Response: With dose response, Evaluation Type: Evaluation A (Pre-1980)) was “active; positive”.

With CC(C)CCC[C@@H](C)[C@H]1CC[C@H]2[C@@H]3C[C@@H]4O[C@@]45C[C@@H](O)CC[C@]5(C)[C@H]3CC[C@]12C the mutagenic call (Species/Cell Type: Syrian hamster embryo (SHE) cells, Assay Type: Cell transformation, clonal assay, Assay Code: CTC+, Evaluation Type: Evaluation A (Pre-1980)) was “active; positive”.

In the case of O=NN1CCCN(N=O)CC1, the mutagenic call [1] is reported as “active; positive”.

O=C(CO)c1coc(=O)c2c(O)cccc12 was tested, and the mutagenic call [2] was “no conclusion”.

With CC(=O)Nc1nc(-c2cc([N+](=O)[O-])c[nH]2)cs1 the mutagenic call [3] was “no conclusion”.

In the case of Nc1nc(-c2cc([N+](=O)[O-])c[nH]2)cs1, the mutagenic call [3] is reported as “no conclusion”.

With CCC(C)=O the mutagenic call [2] was “no conclusion” and the mutagenic call (Species/Cell Type: Mammalian polychromatic erythrocytes, Assay Type: Micronucleus test, chromosome aberrations, Assay Code: MNT-, Evaluation Type: Evaluation B (Post-1980)) was “inactive; negative”.

C#C[C@]1(O)CC[C@H]2[C@@H]3CCC4=CC(=O)CC[C@@H]4[C@H]3CC[C@@]21C was tested, and the mutagenic call (Species/Cell Type: Human, Sex: Male, Assay Type: Sperm morphology, Assay Code: SPH+, Evaluation Type: Evaluation A (Pre-1980)) was “active; positive” and the call (Species/Cell Type: Nonhuman, Assay Code: CCG+, Evaluation Type: Evaluation A (Pre-1980)) was “active; positive”.

For FC(F)(Cl)Cl, the mutagenic call (Species/Cell Type: Tradescantia species, Assay Type: Gene mutation, Assay Code: TRM-, Evaluation Type: Evaluation A (Pre-1980)) was “inactive; negative”.

For c1ccc2c(c1)cnc1ccccc12, the mutagenic call [1] was “active; positive”.

For COc1cc2c(c(O)c1O)C(=O)c1c(O)cc(C)cc1C2=O, the mutagenic call [4] was “active; positive”.

For NC(=O)c1ccccc1C(N)=O, the call (Species/Cell Type: Nonhuman, Assay Code: CCG-, Evaluation Type: Evaluation A (Pre-1980)) was “inactive; negative”.

For CCCCCCCCCCCCCC(=O)N(OC(C)=O)c1ccc2c(c1)Cc1ccccc1-2, the mutagenic call (Species/Cell Type: Human diploid fibroblasts, Assay Type: Unscheduled DNA synthesis (UDS) in vitro, DNA effects, Assay Code: UDH+, Evaluation Type: Evaluation A (Pre-1980)) was “active; positive” and the mutagenic call [4] was “active; positive”.

For OC1C=Cc2c(c3cc4ccccc4cc3c3ccccc23)[C@H]1O (stereo partly drawn), the mutagenic call (Species/Cell Type: Nonhuman, Assay Type: Sister-chromatid exchange (SCE) in vitro, Assay Code: SC2+D, Dose Response: With dose response, Evaluation Type: Evaluation B (Post-1980)) was “active; positive”.

In the case of CN=[N+]([O-])Cc1ccc(C(=O)NC(C)C)cc1, the mutagenic call (Species/Cell Type: Nonhuman, Assay Type: Sister-chromatid exchange (SCE) in vitro, Assay Code: SC2+, Evaluation Type: Evaluation B (Post-1980)) is reported as “active; positive”.

In the case of [Cl][Ge]([Cl])([Cl])[Cl], the mutagenic call (Species/Cell Type: Bacillus subtilis (H17 vs M45), Assay Type: Rec-assay, spot test, DNA effects (bacterial DNA repair), Assay Code: REW+, Evaluation Type: Evaluation A (Pre-1980)) is reported as “active; positive”.

CCOP(=S)(NC(C)C)Oc1ccccc1C(=O)OC(C)C (stereo not drawn) was tested, and the mutagenic call (Species/Cell Type: Nonhuman, Assay Type: Sister-chromatid exchange (SCE) in vitro, Assay Code: SC2-, Evaluation Type: Evaluation B (Post-1980)) was “inactive; negative”.

For CCOC(=O)CNC(=O)C=[N+]=[N-], the mutagenic call [4] was “active; positive”.

With NC12CC3CC(CC(C3)C1)C2 the mutagenic call (Species/Cell Type: Fischer rat embryo (RLV/1706) cells, Assay Type: Cell transformation, viral enhanced, Assay Code: CTR-, Evaluation Type: Evaluation A (Pre-1980)) was “inactive; negative”.
